From paper PMC8157322, “Gd(III)–Pt(IV) theranostic contrast agents for tandem MR imaging and chemotherapy” (Chemical Science, 2020)
Each block holds one molecule with its values, some of them ahead of it.

Legend:
HeLa cells [1] = assay: Concentration-dependent cell uptake, Gd and Pt by ICP-MS; type: cell-based; details: incubated near IC50 concentrations, 24 h
Experimental: (§1) Accumulation of GP1 and GP2 in cells was measured by concentration-dependent uptake experiments in A2780 and HeLa cells. Individual concentration-dependent uptake graphs are found in the ESI. ^†Table 3 compares the accumulation of Gd and Pt in A2780 and HeLa cells that were incubated with GP1, GP2, cisplatin, and carboplatin near their respective IC50 concentrations. For comparison, both cell lines were dosed with complex 1 at similar concentrations as GP1 and GP2. […] First, the accumulation of Gd in both cell lines for both agents is higher than what is typically considered the amount necessary for detection by MR (high μM concentrations).[32,33] […]
(§2) Luminescence of the wells was measured using a Synergy H1 microplate reader (BioTek, Winooski, VT). Viability was determined by comparing luminescence readings of the cells treated with agent to untreated control cells. […]
(§3) Aliquots of cell suspensions were mixed with the Guava ViaCount Reagent and allowed to stain for 5 minutes. The samples were vortexed for 20 seconds and cell count was determined via manual analysis using a Guava EasyCyte Mini PCA and ViaCount software. […] Performance of the instrument was assessed daily using Guava-Check Beads and the manufacturer’s protocol and Daily Check software.
(§4) Quantification of Gadolinium and Platinum with Inductively Coupled Plasma Mass Spectrometry. […]

A2780 cells [2] = assay: as above; type: cell-based; details: incubated near IC50 concentrations, 24 h
Experimental: as §1, §2, §3, §4

HeLa cells [3] = assay: Cell viability assay (CellTiter-Glo 2.0); type: cell-based
Experimental: (§5) To assess the cytotoxicity of GP1 and GP2in vitro, cell viability assays were performed to determine the IC50 concentrations in three cancer cell lines (A2780, HeLa, and MCF-7). Table 2 summarizes the IC50 concentrations of both agents compared to those of cisplatin and carboplatin. […] For all cell lines, GP1 was less toxic than cisplatin but followed the same trend of highest toxicity in A2780 cells and least toxic in MCF-7 cells. GP1 releases cisplatin intracellularly, therefore the apparent difference in toxicity of the two is likely due to decreased cell permeability of GP1 caused by the Gd(III) complex. However, because GP1 is inert in the extracellular matrix, higher doses can be safely administered to account for the decreased cell permeability. […]
(§6) lines were grown in a humidified incubator at 37 °C and 5% CO2 and were harvested using 0.25% TrypLE. Cells were grown for 24 hours after plating before each experiment. All solutions were filtered through […] sterile filters before use.
(§7) Viability Assays. A2780, HeLa, and MCF-7 cells were plated at a density of 3,000 cells per well (100 µL) in an opaque white 96-well plate. Cells were dosed with 100 µL of solutions of GP1, GP2, cisplatin, or carboplatin in MEM and incubated for 48 hours (GP1 or cisplatin) or 72 hours (GP2 or carboplatin). After incubation, 50 µL CellTiter-Glo 2.0 (Promega, Madison, WI) was added to each well and the assay was carried out following the manufacturer’s protocol.
as §2

A2780 cells [4] = assay: Cell viability assay (CellTiter-Glo 2.0); type: cell-based
Experimental: as §5, §6, §7, §2

MCF-7 cells = assay: Cell viability assay (CellTiter-Glo 2.0); type: cell-based
Experimental: as §5, §6, §7, §2

HeLa cells [5] = assay: MR imaging of cell pellets at 7 T; type: cell-based; details: 6 h incubation, cisplatin 15 μM, 1 100 μM, GP1 60 μM, GP2 250 μM
A2780 cells [6] = assay: MR imaging of cell pellets at 7 T; type: cell-based; details: A2780, 7 T, 6 h incubation; cisplatin 7.5 μM, 1 100 μM, GP1 30 μM, GP2 60 μM
[7] = Relaxivity after incubation in 5 mM GSH in PBS; type: physicochemical; details: 1.41 T, PBS with 5 mM glutathione, 37 °C
Experimental: This is possibly due to an increase in the rotational correlation time (τR) or a change in the inner sphere hydration number (q) of Gd(III). The differences in relaxivity of GP1 and GP2 compared to 1 offers the possibility of monitoring reduction of the agents by MR at both high and low field strength. To test this, GP1, GP2, and 1 were incubated in 5 mM GSH in PBS and the relaxivity was measured (see ESI ^†). The relaxivity of each converged to the same value (r1 of 4.4, 4.5, and 4.6 mM^−1 s^−1 for 1, GP1, and GP2 respectively), indicating the same Gd(III) species was formed after reduction. The significant change in r1 upon reduction of GP1 and GP2 theoretically could be used to monitor intracellular reduction by MR. However, further testing needs to be done to determine if these agents are suitable for this application.
(§8) Fig. S2 Graph of r1 of (A) GP1 measured at 1.41 T (B) GP1 measured at 7 T (C) GP2 measured at 1.41 T
(D) GP2 measured at 7 T (E) 1 measured at 1.41 T (F) 1 measured at 7 T. All measurements were taken
in PBS at 37 °C (G) 1 measured at 1.41 T with 5 mM GSH (H) GP1 measured at 1.41 T with 5 mM GSH
and (I) GP2 measured at 1.41 T with 5 mM GSH.
(§9) Table S1. r1 of GP1, GP2, and 1 in PBS with 5 mM glutathione at 37 °C
(§10) GP1 (5 mM GSH) GP2 (5 mM GSH) 1 (5 mM GSH)

[8] = T1/T2 relaxivity measurements in PBS; type: physicochemical; details: 37 °C
Experimental: The T1 relaxivity (r1) and T2 relaxivity (r2) of 1, GP1, and GP2 were measured at both low (1.41 T) and high (7 T) magnetic field strength in phosphate-buffered saline (PBS) to quantify how well they behave as MR contrast agents. […] The relaxivity values for 1 are well within the range of what is expected for a small molecule Gd(III) complex.[34] […] At 7 T, there was little change in r1 for both agents, while both r2 values increased, as expected. […]
solution. These capillaries were imaged using a Bruker PharmaScan 7 T MR imaging spectrometer (Bruker BioSpin, Billerica, MA, USA). T1 relaxation times were measured using a rapid-acquisition rapid-echo (RARE-VTR) T1-map pulse sequence with static TE (10 ms) and […]
parameters were as follows: field of view (FOV) = 25 x 25 mm2, matrix size (MTX) = 256 x 256, number of axial slices = 5, slice thickness (SI) = 1.0 mm, and averages (NEX) = 4. T1 analysis was carried out using the image sequence analysis tool in Paravision 5.0 pl2 software (Bruker, Billerica, MA, USA) with monoexponential curve-fitting of image intensities of selected regions of interest (ROIs) for each axial slice. […]
as §8
(D) GP2 measured at 7 T (E) 1 measured at 1.41 T (F) 1 measured at 7 T. All measurements were taken in PBS at 37 °C (G) 1 measured at 1.41 T with 5 mM GSH (H) GP1 measured at 1.41 T with 5 mM GSH and (I) GP2 measured at 1.41 T with 5 mM GSH.
as §9, §10

[9] = Aqueous solubility (qualitative); type: physicochemical; details: aqueous solutions / solvents

SMILES: N.N.O=C([O-])C1(C(=O)[O-])CCC1.[Pt+2] [Carboplatin, carboplatin]
Cell accumulation of Pt (HeLa cells [1]): 0.60 ± 0.11 fmol per cell
Cell accumulation of Pt (A2780 cells [2]): 0.22 ± 0.02 fmol per cell
IC50 (HeLa cells [3]; 72 h incubation): 71.2 ± 4.9 µM
IC50 (A2780 cells [4]; A2780, 72 h incubation): 15.3 ± 5.8 µM
IC50 (MCF-7 cells; MCF-7, 72 h incubation): 124 ± 4 µM

SMILES: N.N.[Cl][Pt][Cl] [Cisplatin, cisplatin]
T1 of cell pellet (HeLa cells [5]): 2236 ± 19 ms
Δ R1 (increase in R1 vs untreated control) (HeLa cells [5]): 2.7%
T1 of cell pellet (A2780 cells [6]): 2216 ± 26 ms
Δ R1 (increase in R1 vs untreated control) (A2780 cells [6]): 4.6%
IC50 (HeLa cells [3]; 48 h incubation): 14.7 ± 1.2 µM
IC50 (A2780 cells [4]; A2780, 48 h incubation): 7.6 ± 2.3 µM
IC50 (MCF-7 cells; MCF-7, 48 h incubation): 22.4 ± 2 µM

r1 with 5 mM GSH [7]: 4.4 mM⁻¹ s⁻¹
r1 (T1 relaxivity) ([8]; 1.41 T): 4.1 mM⁻¹ s⁻¹
r1 (T1 relaxivity) ([8]; 7 T): 4.7 mM⁻¹ s⁻¹
SMILES: O=C([O-])CN1CCN(CCCCCC(=O)O)CCN(CC(=O)[O-])CCN(CC(=O)[O-])CC1.[Gd+3] [Complex 1]
T1 of cell pellet (HeLa cells [5]): 2178 ± 42 ms
Δ R1 (increase in R1 vs untreated control) (HeLa cells [5]): 5.5%
T1 of cell pellet (A2780 cells [6]): 2170 ± 34 ms
Δ R1 (increase in R1 vs untreated control) (A2780 cells [6]): 6.8%

Solubility [9]: insoluble in most solvents
SMILES: [NH2][Pt]([NH2])([OH])([OH])([Cl])[Cl] [Complex 2]

SMILES: [NH2][Pt]1([NH2])([OH])([OH])[O]C(=O)C2(CCC2)C(=O)[O]1 [Complex 3]
Solubility [9]: insoluble in most solvents
